Test results published in publication PMC4126670 (ChemMedChem, 2014).
Values after ≈ are worked out from the molar mass of the structure shown. “Also recorded” adds a separate entry of the source. Like-named read-outs stand apart in the source and are kept apart here.

Tests used:
[1] = target: T1, wild-type InhA (Mycobacterium tuberculosis, UniProt P9WGR1); assay: InhA enzyme inhibition, steady state kinetics; assay type: biochemical
[2] = target: T1, wild-type InhA; assay: InhA progress curve assays; assay type: biochemical; details: for Slow-onset: Yes/No
[3] = system: M. tuberculosis; assay: Antibacterial growth assay; assay type: cell-based, Mycobacterium tuberculosis
[4] = system: M. tuberculosis Erdman; details: mice, bacterial load in lung or spleen; cited from earlier work
[5] = system: M. tuberculosis; details: cited from earlier work
[6] = system: M. tuberculosis Erdman; assay: Rapid M. tuberculosis animal model of efficacy; assay type: in vivo, Mycobacterium tuberculosis; details: for reduction of bacterial counts in the spleen: GKO C57BL/6 mice, IP, 10 days of treatment, compared to untreated controls; for efficacy in rapid murine model of TB infection: mice, IP delivery, bacterial CFUs in spleen
[7] = target: T1, wild-type InhA; details: cited from earlier work
[8] = Table 1, slow-onset (time-dependent) inhibition of InhA
[9] = Table 1, lowest concentration inhibiting visible growth

T1 sequence (P9WGR1 whole entry, looked up): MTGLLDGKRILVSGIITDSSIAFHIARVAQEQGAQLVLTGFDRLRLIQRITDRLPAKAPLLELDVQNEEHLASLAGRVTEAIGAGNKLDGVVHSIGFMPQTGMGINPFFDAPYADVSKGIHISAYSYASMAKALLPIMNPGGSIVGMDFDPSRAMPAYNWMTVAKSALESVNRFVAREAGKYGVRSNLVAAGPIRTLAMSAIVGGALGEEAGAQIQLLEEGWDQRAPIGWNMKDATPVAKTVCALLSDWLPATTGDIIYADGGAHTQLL

Compound	IC50 [1] [nM]	Slow-onset [2, 8]	MIC ([3]; Mycobacterium tuberculosis) [µg/mL]	also measured
CCCCCCc1ccc(Oc2ccccc2O)c(O)c1 [PT114, 5-Hexyl-2-(2-hydroxyphenoxy)phenol]	48 ± 3	No	12.5 (≈ 43.6 µM)	Ki [2]: 15.9 ± 3.7 nM
CCCCCCc1ccc(Oc2ccccc2C#N)c(O)c1 [PT119, 2-(4-Hexyl-2-hydroxyphenoxy)benzonitrile]		Yes	2.5 (≈ 8.46 µM)	residence time [2]: 80 ± 12 min; fold reduction of binding affinity compared to PT070 ([2]; ratio of Ki): ~ 50 fold
CCCCCCc1ccc(Oc2ccccc2F)c(O)c1 [PT113, 2-(2-Fluorophenoxy)-5-hexylphenol]	12.1 ± 4.8	Yes	1.56 (≈ 5.41 µM)	Ki [2]: 0.09 ± 0.02 nM; residence time [2]: 9 ± 3 min
CCCCCCc1ccc(Oc2ccccn2)c(O)c1 [PT077]				MIC ([3]; Table 3): 3.13 µg/mL (≈ 11.5 µM)
CCCCCCc1ccc(Oc2c(F)cccc2C#N)c(O)c1 [PT111, 3-Fluoro-2-(4-hexyl-2-hydroxyphenoxy) benzonitrile]	100 ± 9		25 (≈ 79.8 µM)	
CCCCCCc1ccc(Oc2ccc([N+](=O)[O-])cc2C)c(O)c1 [PT107, 5-Hexyl-2-(2-methyl-4-nitrophenoxy)phenol]	50 ± 5		6.25 (≈ 19 µM)	Ki [2]: 0.13 ± 0.03 nM
CCCCCCc1ccc(Oc2ccccc2N)c(O)c1 [PT013]				MIC [3, 9]: 3.13 µg/mL (≈ 11 µM)
CCCCCCc1ccc(Oc2cccnc2C#N)c(O)c1 [PT164, 3-(4-Hexyl-2-hydroxyphenoxy)picolinonitrile]	308 ± 4.2		< 0.39	Slow-onset ([2]; Table 3): slow-onset inhibition and Yes
CCCCCCc1ccc(Oc2ccccc2)c(O)c1 [PT004]				MIC [3, 9]: 2.1 µg/mL (≈ 7.77 µM); MIC ([3]; Table 2): 2.1 ± 0.9 µg/mL (≈ 7.77 µM); efficacy in rapid murine model of TB infection [4]: failed to observe a significant reduction in bacterial load; also recorded: did not show efficacy; also recorded: did not significantly reduce the bacterial load; also recorded: does not demonstrate efficacy; also recorded: lack of efficacy; bacterial load in rapid macrophage model of TB infection [5]: had efficacy in a macrophage TB assay; also recorded: reduced the bacterial load
CCCCCCc1ccc(Oc2ccccc2Cl)c(O)c1 [PT091, 2-(2-Chlorophenoxy)-5-hexylphenol]		slow onset and Yes	1.56 (≈ 5.12 µM)	residence time [2]: 21 ± 3 min; reduction of bacterial counts in the spleen [6]: 0.69 ± 0.22 log10; efficacy in rapid murine model of TB infection [6]: demonstrated efficacy
CCCCCCc1ccc(Oc2c(C)cccc2N)c(O)c1 [PT110, 2-(2-Amino-6-methylphenoxy)-5-hexylphenol]			> 100	MIC ([3]; Table 2): total loss
CCCCCCc1ccc(Oc2cncnc2N)c(O)c1 [PT134, 2-((4-Aminopyrimidin-5-yl)oxy)-5-hexylphenol]	239 ± 46.8		3.12 (≈ 10.9 µM)	
CCCCCCc1ccc(Oc2ccccc2I)c(O)c1 [PT096, 5-Hexyl-2-(2-iodophenoxy)phenol]	44.6 ± 7.5	No	25 (≈ 63.1 µM)	Ki [2]: 3.72 ± 5.13 nM
CCCCCCc1ccc(Oc2c(Cl)cccc2Cl)c(O)c1 [PT109, 2-(2,6-Dichlorophenoxy)-5-hexylphenol]	86 ± 6		25 (≈ 73.7 µM)	
CCCCCCc1ccc(Oc2c(F)cccc2Cl)c(O)c1 [PT133, 2-(2-Chloro-6-fluorophenoxy)-5-hexylphenol]	79.7 ± 24.4		25 (≈ 77.4 µM)	
CCCCCCc1ccc(Oc2cccnc2F)c(O)c1 [PT161, 2-((2-Fluoropyridin-3-yl)oxy)-5-hexylphenol]	40 ± 20		0.312 (≈ 1.08 µM)	Slow-onset ([2]; Table 3): slow-onset inhibition and Yes
CCCCCCc1ccc(Oc2ccccc2C(F)(F)F)c(O)c1 [PT095, 5-Hexyl-2-(2-(trifluoromethyl)phenoxy)phenol]	29.7 ± 1.2	No	50 (≈ 148 µM)	
CCCCCCc1ccc(Oc2cnccc2C#N)c(O)c1 [PT115, 3-(4-Hexyl-2-hydroxyphenoxy)isonicotinonitrile]	891 ± 106		12.5 (≈ 42.2 µM)	residence time [2]: > 20 min; Slow-onset ([2]; Table 3): Yes
CCCCCCc1ccc(Oc2ccccc2Br)c(O)c1 [PT092, 2-(2-Bromophenoxy)-5-hexylphenol]		Yes	3.12 (≈ 8.95 µM)	residence time [2]: 30 ± 3 min
CCCCCCc1ccc(Oc2ccccc2[N+](=O)[O-])c(O)c1 [PT010]				MIC [3, 9]: 12.50 µg/mL (≈ 39.6 µM)
CCCCCCc1ccc(Oc2cnccc2C(=O)O)c(O)c1 [PT116, 3-(4-Hexyl-2-hydroxyphenoxy)isonicotinic acid]	> 12000		25 (≈ 79.3 µM)	
CCCCCCc1ccc(Oc2c(C)cccc2C)c(O)c1 [PT108, 2-(2,6-Dimethylphenoxy)-5-hexylphenol]	1570 ± 200		100 (≈ 335 µM)	
CCCCCCc1ccc(Oc2ccccc2C)c(O)c1 [PT070]		slow onset and Yes		IC50 ([1]; Table 1, enzyme concentration 100 nM): 50.7 ± 4 nM; Ki ([2]; Table 1): 0.044 ± 0.005 nM; residence time ([2]; Table 1): 24 ± 2 min; MIC [3, 9]: 3.125 µg/mL (≈ 11 µM); MIC ([3]; Table 2): 3.125 µg/mL (≈ 11 µM); reduction of bacterial counts in the spleen [6]: 0.57 ± 0.26 log10; efficacy in rapid murine model of TB infection [6]: demonstrated efficacy; residence time on InhA [7]: 24 min
CCCCCCc1ccc(Oc2cnccc2N)c(O)c1 [PT112, 2-((4-Aminopyridin-3-yl)oxy)-5-hexylphenol]	69000 ± 700		50 (≈ 175 µM)	fold increase in IC50 value, amino group compared to fluorine group ([1]; PT013 vs. PT113, PT112 vs. PT161): 1700 fold; fold difference in IC50 value between PT134 and PT112 ([1]; PT134 (2'- and 4'-N) vs 4'-N analogue PT112): 300 fold
